Our source for the Activity and IC50 values is ChEMBL document CHEMBL5131448, “Tumor-microenvironmental-response Bi-functional molecules for efficient imaging and anti-tumor activity therapy” (Eur J Med Chem, 2022).

Calls of active or inactive are those of the source. No cut-off for these calls is given here.

One series has as its system HEK293. Nature of the series: Cytotoxicity against human HEK293 cells measured after 72 hrs by MTT assay. It is filed as toxicity, cell-based. The note with it: hek293, 72 h.
Series [1] deals with EA.hy 926. Nature of the series: Effect on cell apoptosis in human EA.hy 926 cells assessed as promotion of apoptosis at 0.1 to 40 uM measured after 72 hrs by Annexin V-FITC/propidium iodide staining based flow cytometry. It is filed as functional. The note with it: dose 0.1-40 µM.
Series [2] has as its system EA.hy 926. Nature of the series: Antiproliferative activity against human EA.hy 926 cells after 72 hrs by MTT assay. It is filed as functional, cell-based. Particulars: EA.hy 926, 72 h.
For another series, the system named is HeLa. The series can be described thus: Antiproliferative activity against human HeLa cells after 72 hrs by MTT assay. It is filed as functional, cell-based.
The next series relates to MDA-MB-231. The series can be described thus: Antiproliferative activity against human MDA-MB-231 cells after 72 hrs by MTT assay. It is filed as functional, cell-based. Particulars: MDA-MB-231, 72 h.
The subject of series [3] is EA.hy 926. The series can be described thus: Induction of cell cycle arrest in human EA.hy 926 cells assessed as accumulation of cells at G1-pahse at 0.1 to 40 uM measured after 72 hrs by propidium iodide staining method. The note with it: dose 0.1-40 µM. It is filed as functional, cell-based.
The subject of another series is A549. The series can be described thus: Antiproliferative activity against human A549 cells after 72 hrs by MTT assay. It is filed as functional, cell-based. The note with it: A549, 72 h.

For the compound `CCN(CC)c1ccc2c(-c3ccccc3C(=O)NCCCCNC(=O)CSSCC(=O)Nc3cccc(-c4cn(Cc5ccc(-c6ccc(OC)nc6)cc5)nn4)c3)c3ccc(=[N+](CC)CC)cc-3oc2c1`, the Activity result with HEK293 is given as “Non-Toxic”. Besides, the result with EA.hy 926 [1] and in the series with EA.hy 926 [3] was Active. In addition, the IC50 was found to be 2.96 µM in the series on EA.hy 926 [2], 15.8 µM in the series on HeLa and 35.9 µM with MDA-MB-231.

`CCN(CC)c1ccc2c(-c3ccccc3C(=O)NCCCCNC(=O)CSSCC(=O)n3nc(N)c4c(-c5ccc(NC(=O)Nc6cc(C)ccc6F)cc5)cccc43)c3ccc(=[N+](CC)CC)cc-3oc2c1`: the IC50 came out at 22.1 µM in the series with A549, 0.03 µM with EA.hy 926 [2], 128 µM with HeLa and 85 µM with MDA-MB-231. In addition, in the series on HEK293, the Activity result is “Non-Toxic”. In addition, the outcome in the series with EA.hy 926 [1] and in the series on EA.hy 926 [3] was Active.

Consider `COc1ccc(-c2ccc(Cn3cc(-c4cccc(N)c4)nn3)cc2)cn1`, for which the Activity entry in the series with HEK293 is listed as “Non-Toxic”. The outcome with EA.hy 926 [1] and in the series on EA.hy 926 [3] was Active.
